# Measurements as given in US9102670B2, “Pyrido-, pyrazo- and pyrimido-pyrimidine derivatives as mTOR inhibitors” (KuDOS Pharmaceuticals Limited, priority 2006, dated 2015).
# Read-outs that look alike come from different tables or passages of the source.
# Tested on: phosphorylation of Serine 473 in Akt
# Experiment: In Vitro Phospho-Ser473 Akt Assay in MDA-MB-468 cells
# Assay type: cell-based
# Settings: Homo sapiens
# [1] = MDA-MB-468, read-out: IC50 values against mTOR, phospho-Ser473 Akt assay, MDA-MB-468 cells
SMILES,"IC50 (MDA-MB-468, read-out: IC50 values against mTOR, phospho-Ser473 Akt assay, MDA-MB-468 cells, upper bound)",IC50 [1]
C[C@@H]1CCCCN1c1nc(N2CCOC[C@@H]2C)c2ccc(-c3ccc(Cl)cc3)nc2n1 [Example 18dg],< 1000 nM,–
COc1ccc(CCNCc2cc(-c3ccc4c(N5CCOC[C@@H]5C)nc(N5CCOC[C@@H]5C)nc4n3)ccc2OC)cc1 [Example 4bd],–,< 100 nM
COc1ccc(-c2ccc3c(N4CCOC[C@@H]4C)nc(N4CCOC(c5ccccc5)C4)nc3n2)cc1CO (stereo partly shown) [Example 18bf],–,< 300 nM
C[C@H]1COCCN1c1nc(N2CCOC[C@@H]2C)c2ccc(-c3ccoc3CO)nc2n1 [Example 6a],–,< 300 nM
COc1ccc(-c2ccc3c(N4CCOC[C@@H]4C)nc(N4CCCCC4)nc3n2)cc1CO [Example 18c],–,< 100 nM
COc1ccc(-c2ccc3c(N4CCOC[C@@H]4C)nc(N4CCCC(C)C4)nc3n2)cc1CO (stereo partly shown) [Example 18i],–,< 100 nM
COc1ccc(-c2ccc3c(N4CCOC[C@@H]4C)nc(N4CCOc5ccccc54)nc3n2)cc1CO [Example 18bl],–,< 300 nM
COc1ccc(-c2ccc3c(N4CCOC[C@@H]4C)nc(NC(C)CC(C)C)nc3n2)cc1CO (stereo partly shown) [Example 18av],–,< 300 nM
Cc1ccc(-c2ccc3c(N4CCOC[C@@H]4C)nc(N4CCOC[C@@H]4C)nc3n2)cc1 [Example 1f],–,< 100 nM
CC(=O)NCc1cccc(-c2ccc3c(N4CCOC[C@@H]4C)nc(N4CCOC[C@@H]4C)nc3n2)c1 [Example 5a],–,< 100 nM
COc1ccc(-c2ccc3c(N4CCOC[C@@H]4C)nc(N4CCC(C#N)(c5ccccc5)CC4)nc3n2)cc1CO [Example 18an],–,< 100 nM
COc1ccc(-c2nc(N3CCOC[C@@H]3C)c3ccc(-c4cccc(CO)c4)nc3n2)cn1 [Example 19p],–,< 100 nM
CC(C)NCc1ccc(-c2ccc3c(N4CCOC[C@@H]4C)nc(N4CCOC[C@@H]4C)nc3n2)o1 [Example 7k],–,< 100 nM
